Consider one compound from patent US6380209B1 (dated 2002).

Molecules are shown by their SMILES. Structures can show the parent of a compound that is named as a salt.

With `Fc1ccc(-c2cc(NCC3CCNCC3)c3sccc3n2)cc1` (as salt: hydrochloride), the melting point was > 260 °C (dec.).

As usually defined, the melting point is the temperature, or range, at which the solid turns liquid.
